# Assay results published in patent US11390617B2, “Methods of treating non-Hodgkin lymphoma using 2-(2,6-dioxopiperidin-3-yl)-4-((2-fluoro-4-((3-morpholinoazetidin-1-yl)methyl)benzyl)amino)isoindoline-1,3-dione” (Celgene Corporation, priority 2019, dated 2022).
# Assays:
# Assay in all cases: NHL cell line viability/apoptosis 384-well flow cytometry assay
# Format in all cases: cell-based
# HT = HT (DLBCL), 120 hours
# How it was run: (§1)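 Serial dilutions from 0.00015 to 10 μM, or DMSO at 0.1% (v/v), are added and cells incubated 120 hours. Annexin V and DRAQ7 staining then separates viable from apoptotic cells. Nonlinear regression of normalized curves yields IC50, Emax, EC50, Ymax and AUC.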
# NU-DUL-1 = NU-DUL-1 (DLBCL), 120 hours
# How it was run: as §1
# Pfeiffer = Pfeiffer (DLBCL), 120 hours
# How it was run: as §1
# RC-K8 = RC-K8 (DLBCL), 120 hours
# How it was run: as §1
# ROS-50 = ROS-50 (DLBCL), 120 hours
# How it was run: as §1
# Rec-1 = Rec-1 (MCL), 120 hours
# How it was run: as §1
# U-2904 = U-2904 (DLBCL), 120 hours
# How it was run: as §1
# U-2973 = conditions: U-2973, 120 hours
# How it was run: as §1
# WILL-2 = WILL-2 (DLBCL), 120 hours
# How it was run: as §1
# [1] = Homo sapiens, read-out: IC50 (% Viable Cells)
# [2] = read-out: IC50 (% Viable Cells)
smiles,measurement,setting,value
"O=C1CC[C@H](N2C(=O)c3cccc(NCc4ccc(CN5CC(N6CCOCC6)C5)cc4F)c3C2=O)C(=O)N1 [Compound 1, (S)-2-(2,6-dioxopiperidin-3-yl)-4-((2-fluoro-4-((3-morpholinoazetidin-1-yl)methyl)benzyl)amino)isoindoline-1,3-dione]",AUC (% Viable Cells),HT,396.7
same,AUC (Apoptosis),HT,225.3
same,Emax (% Viable Cells),HT,30.39%
same,Ymax (Apoptosis),HT,25.16%
same,EC50,HT; Homo sapiens,66.2 nM
same,IC50,HT; [1],319 nM
same,EC50,NU-DUL-1; Homo sapiens,63 nM
same,IC50,NU-DUL-1; [1],35.3 nM
same,AUC (% Viable Cells),NU-DUL-1,22.12
same,AUC (Apoptosis),NU-DUL-1,962.8
same,Emax (% Viable Cells),NU-DUL-1,0.0228%
same,Ymax (Apoptosis),NU-DUL-1,99.84%
same,EC50,Pfeiffer; Homo sapiens,13.6 nM
same,IC50,Pfeiffer; [1],47.7 nM
same,AUC (% Viable Cells),Pfeiffer,313.5
same,AUC (Apoptosis),Pfeiffer,493.3
same,Emax (% Viable Cells),Pfeiffer,24.49%
same,Ymax (Apoptosis),Pfeiffer,51.82%
same,EC50,"RC-K8; Homo sapiens, RCK8",74.3 nM
same,IC50,"RC-K8; Homo sapiens, RCK8, read-out: IC50 (% Viable Cells)",3.37 nM
same,AUC (% Viable Cells),RC-K8,115.7
same,AUC (Apoptosis),RC-K8,349.2
same,Emax (% Viable Cells),RC-K8,10.06%
same,Ymax (Apoptosis),RC-K8,26.31%
same,AUC (% Viable Cells),ROS-50,762.1
same,AUC (Apoptosis),ROS-50,87.92
same,EC50,ROS-50,335 nM
same,Emax (% Viable Cells),ROS-50,65.57%
same,Ymax (Apoptosis),ROS-50,10.9%
same,IC50,ROS-50; [2],≥ 10000 nM
same,EC50,"Rec-1; Homo sapiens, Rec1",9.26 nM
same,IC50,"Rec-1; Homo sapiens, Rec1, read-out: IC50 (% Viable Cells)",32 nM
same,AUC (% Viable Cells),Rec-1,281.8
same,AUC (Apoptosis),Rec-1,508.5
same,Emax (% Viable Cells),Rec-1,21.04%
same,Ymax (Apoptosis),Rec-1,57.27%
same,AUC (% Viable Cells),U-2904,334.1
same,AUC (Apoptosis),U-2904,456.1
same,EC50,U-2904,3290 nM
same,Emax (% Viable Cells),U-2904,7.609%
same,Ymax (Apoptosis),U-2904,77.39%
same,IC50,U-2904; [2],201 nM
same,EC50,U-2973; Homo sapiens,2160 nM
same,IC50,U-2973; [1],6780 nM
same,AUC (% Viable Cells),U-2973,853.4
same,AUC (Apoptosis),U-2973,391.9
same,Emax (% Viable Cells),U-2973,19.45%
same,Ymax (Apoptosis),U-2973,60.8%
same,AUC (% Viable Cells),WILL-2,17.1
same,AUC (Apoptosis),WILL-2,916.9
same,EC50,WILL-2,89.7 nM
same,Emax (% Viable Cells),WILL-2,0.03115%
same,Ymax (Apoptosis),WILL-2,99.43%
same,IC50,WILL-2; [2],2.36 nM
